Assay results taken from patent US12221417B2, “Salt of omecamtiv mecarbil and process for preparing salt” (Cytokinetics, Inc., priority 2013, dated 2025).
Counter-ions that a name gives are not always drawn.

What was measured:
[1] = pH 3.5
[2] = Dynamic vapor sorption (moisture balance); format: physicochemical
Procedure: Moisture balance data was collected using a VTI SGA 100 symmetrical vapor sorption analyzer. Relative humidity was varied in increments of 5%, between 5% and 95% relative humidity during the adsorption run, and from 95% to 5% relative humidity during the desorption run. Equilibrium criteria was set at 0.01% weight change in 1 minute with a max equilibrium time of 180 minutes. Approximately 1-15 mg of sample was used.

physchem = conditions: pH 3.5, water, thermodynamic from solid
[3] = Water solubility (24 hour slurry experiment); conditions: pH 3.8, water, thermodynamic from solid

Row | phase change during the slurry experiment [1] | weight change, dynamic vapor sorption ([2]; above 15% relative humidity, upon reaching 95% relative humidity) [%] | weight loss, dynamic vapor sorption ([2]; between about 30% and about 5% RH) | total weight gain, dynamic vapor sorption ([2]; between about 40% and about 95% relative humidity) | hygroscopicity ([2]; dynamic vapor sorption) | phase change after the vapor sorption experiment ([2]; examined by XRPD) | solubility at 24 h (physchem) [mg/mL] | solubility [3] [mg/mL] | SMILES
1 | no phase change | ~1.0 | about 2.7 wt % | about 0.55 wt. % | non-hygroscopic | No phase change | > 40 |  | COC(=O)N1CCN(Cc2cccc(NC(=O)Nc3ccc(C)nc3)c2F)CC1 [Form A, omecamtiv mecarbil dihydrochloride hydrate]
2 |  |  |  |  |  |  |  | > 40 | COC(=O)N1CCN(Cc2cccc(NC(=O)Nc3ccc(C)nc3)c2F)CC1 [dihydrochloride salt, omecamtiv mecarbil dihydrochloride hydrate]
